# Measured values as given in patent US20230241072A1, “ANTHRACYCLINE DERIVATIVES” (ALMAC DISCOVERY LIMITED, priority 2019, published 2023).
# Experiments:
# PA-1 = assay: Free payload potency in cell lines (96 h): PA-1; assay type: cell-based, human; conditions: PA-1 (Ovarian)
# Description: (§1) The potency of the EDA-PNU159682 derivative (FIG. 1) was tested in a variety of cell lines.
# [1] = test system: PA-1 32.35 (Ovarian ROR1 −/−); assay: Free payload potency in cell lines (96 h): PA-1 32.35; assay type: cell-based, human
# Description: as §1
# PC-9 = assay: Free payload potency in cell lines (96 h): PC-9; assay type: cell-based; conditions: PC-9 (Lung)
# Description: as §1
# NCI-N87 = assay: Free payload potency in cell lines (96 h): NCI-N87; assay type: cell-based; conditions: NCI-N87 (Stomach)
# Description: as §1
# DU145 = assay: Free payload potency in cell lines (96 h): DU145; assay type: cell-based; conditions: DU145 (Prostate)
# Description: as §1
# MDA-231 = assay: Free payload potency in cell lines (96 h): MDA-231; assay type: cell-based; conditions: MDA-231 (Breast)
# Description: as §1
# MHH-ES1 = assay: Free payload potency in cell lines (96 h): MHH-ES1; assay type: cell-based, human; conditions: MHH-ES1 (Ewings sarcoma)
# Description: as §1
# A427 = assay: Free payload potency in cell lines (96 h): A427; assay type: cell-based; conditions: A427 (Lung)
# Description: as §1
# Panc-1 = assay: Free payload potency in cell lines (96 h): Panc-1; assay type: cell-based; conditions: Panc-1 (Pancreatic)
# Description: as §1
# A549 = assay: Free payload potency in cell lines (96 h): A549; assay type: cell-based, human; conditions: A549 (Lung)
# Description: as §1
# ACHN = assay: Free payload potency in cell lines (96 h): ACHN; assay type: cell-based; conditions: ACHN (Kidney)
# Description: as §1
# Hs746T = assay: Free payload potency in cell lines (96 h): Hs746T; assay type: cell-based; conditions: Hs746T (Stomach)
# Description: as §1
# Mino = assay: Free payload potency in cell lines (96 h): Mino; assay type: cell-based; conditions: Mino (MCL)
# Description: as §1
# 697 = assay: Free payload potency in cell lines (96 h): 697; assay type: cell-based, human; conditions: 697 (BCL)
# Description: as §1
# JeKo-1 = assay: Free payload potency in cell lines (96 h): JeKo-1; assay type: cell-based; conditions: JeKo-1 (MCL)
# Description: as §1
# MDA-468 = assay: Free payload potency in cell lines (96 h): MDA-468; assay type: cell-based; conditions: MDA-468 (Breast)
# Description: as §1
# [2] = test system: PA-1 31-J-06 (Ovarian ROR1 −/−); assay: Free payload potency in cell lines (96 h): PA-1 31-J-06; assay type: cell-based, human
# Description: as §1
# Kasumi-2 = assay: Free payload potency in cell lines (96 h): Kasumi-2; assay type: cell-based, human; conditions: Kasumi-2 (BCL)
# Description: as §1
# [3] = Mouse plasma half-life of free payloads (parallel study); assay type: in vitro ADME; conditions: free payload
# Description: For both the vc-PAB-DMAE-PNU and vc-PAB-EDA-PNU conjugates liberation of some free payload could be detected as a function of time, with 217 nM PNU159682 and 114 nM of EDA-PNU159682 derivative detected after 120 h respectively. Note, in a parallel study, we calculated the mouse plasma half-lives of the free PNU159682 and EDA-PNU159682 derivatives to be 33 h and 116 h respectively.
# A2780 = conditions: ovarian cell line A2780; cited from earlier work
# MCF7 = conditions: breast cancer cell line MCF7; cited from earlier work
compound,measurement,setting,value
COc1cccc2c1C(=O)c1c(O)c3c(c(O)c1C2=O)C[C@@](O)(C(=O)CO)C[C@@H]3O[C@H]1C[C@H]2[C@H](O[C@@H]3[C@@H](OC)OCCN32)[C@H](C)O1 [PNU159682],IC50,PA-1,0.0044 nM
same,IC50,[1],0.0014 nM
same,IC50,PC-9,0.047 nM
same,IC50,NCI-N87,0.122 nM
same,IC50,DU145,0.022 nM
same,IC50,MDA-231,0.011 nM
same,IC50,MHH-ES1,0.0034 nM
same,IC50,A427,0.0098 nM
same,IC50,Panc-1,0.026 nM
same,IC50,A549,0.013 nM
same,IC50,ACHN,0.0097 nM
same,IC50,Hs746T,0.049 nM
same,IC50,Mino,0.037 nM
same,IC50,697,0.008 nM
same,IC50,JeKo-1,0.044 nM
same,IC50,MDA-468,0.021 nM
same,IC50,[2],0.0022 nM
same,IC50,Kasumi-2,0.0024 nM
same,mouse plasma half-life,[3],33 h
same,potency for in vitro cell killing,A2780,pico- to femtomolar range
same,potency for in vitro cell killing,MCF7,pico- to femtomolar range
